In patent US20260109725A1, “MACROLIDE SENOLYTIC COMPOUNDS” (LUNELLA BIOTECH, INC., priority 2022, published 2026):

Legend:
[1] = test system: Acinetobacter baumannii ATCC 17978; assay: in vitro broth microdilution assay (MIC); assay type: cell-based; details: ATCC17978
Method: (§1) This is advantageous because use of the compounds of the present approach as therapeutic agents will have less of an impact on the development of antibiotic resistance. For example, embodiments of the present approach were screened for antibiotic activity, using the in vitro broth microdilution assay. […] The assay conditions, described by the Clinical and Laboratory Standards Institute were used for preparation of the inoculum, growth medium, and end point reading. Test substance was dissolved in 100% DMSO, suspended completely by vortexing, diluted by 2-fold serial titrations in the same vehicle, for a total of 11 test concentrations. A 4 μL aliquot of each dilution was added to 196 μL of broth medium seeded with the organism suspension in wells of a 96 well plate (bacterial count: 2-8×10(5) colony forming units/mL final). The final volume was 200 μL in each well and the final DMSO concentration was 2 percent. Test concentrations were 0.1 to 100 μM. Following incubation, the test plates were visually examined and wells were scored for growth or complete growth inhibition to define the minimum inhibitory concentration. Each test substance was evaluated with replicates. Vehicle controls and an active reference agent were used as blank and positive controls. Note that MRSA represents methicillin-resistant Staphylococcus aureus, and VRE represents vancomycin resistant Enterococcus.

[2] = test system: Enterococcus faecalis ATCC 29212; assay: in vitro broth microdilution assay (MIC); assay type: cell-based; details: ATCC29212; Enterococcus faecalis ATCC 29212, QC strain
Method: as §1

[3] = test system: Enterococcus faecium ATCC 700221 VanA VRE; assay: in vitro broth microdilution assay (MIC); assay type: cell-based
Method: as §1

[4] = test system: Escherichia coli ATCC 25922; assay: in vitro broth microdilution assay (MIC); assay type: cell-based; details: ATCC25922; Escherichia coli ATCC 25922, QC strain
Method: as §1

[5] = test system: Escherichia coli JW5503 DEL-tolC; assay: in vitro broth microdilution assay (MIC); assay type: cell-based; details: JW5503DELTOLC
Method: as §1

[6] = test system: Haemophilus influenzae ATCC 49247; assay: in vitro broth microdilution assay (MIC); assay type: cell-based; details: ATCC49247; Haemophilus influenzae ATCC 49247, QC strain
Method: as §1

[7] = test system: Klebsiella pneumoniae ATCC 43816; assay: in vitro broth microdilution assay (MIC); assay type: cell-based; details: ATCC43816
Method: as §1

[8] = test system: Pseudomonas aeruginosa ATCC 27853; assay: in vitro broth microdilution assay (MIC); assay type: cell-based; details: ATCC27853; Pseudomonas aeruginosa ATCC 27853, QC strain
Method: as §1

[9] = test system: Staphylococcus aureus ATCC 29213; assay: in vitro broth microdilution assay (MIC); assay type: cell-based; details: ATCC29213; Staphylococcus aureus ATCC 29213, QC strain
Method: as §1

[10] = test system: Staphylococcus aureus ATCC 33591 MRSA; assay: in vitro broth microdilution assay (MIC); assay type: cell-based
Method: as §1

[11] = test system: Streptococcus pneumoniae ATCC 49619; assay: in vitro broth microdilution assay (MIC); assay type: cell-based; details: ATCC49619; Streptococcus pneumoniae ATCC 49619, QC strain
Method: as §1

[12] = test system: control MRC-5 cells; assay: xCELLigence assay, control MRC-5 cells; assay type: cell-based, human; details: 50 μM, 5 days
From the text: (§2) Senescent cells undergo the so-called senescence-associated secretory phenotype (SASP), which involves dramatic increases in the synthesis and secretion of proteins. The xCELLigence assay system was used to assess whether protein measurement assays under-estimate the senolytic activity of tested compounds. […] The real-time xCELLigence assay system thus compliments the more static SRB assay, and offers a more direct visualization of the potential senolytic effects of compounds during drug screening.
(§3) The xCELLigence assay was used to confirm senolytic activity for Compound [I]. MRC-5 fibroblasts were used for the assay. […] The data is expressed as the final cell index, the average±the standard error of mean, for the control cells, control cells treated with Compound [I], BrdU-treated control cells, and BrdU-treated fibroblasts subjected to Compound [I] at 50 μM, respectively. The senescent MRC-5 cells were pretreated with BrdU for 8 days to induce senescence, before exposure to Compound [I] for another 5 days. Compared to the control, Compound [I] treatment had no effect on the viability of normal fibroblasts, but killed over 90% of the BrdU-treated fibroblasts.
(§4) xCELLigence Assay System: xCELLigence RTCA System (ACEA Biosciences Inc.). […] This approach allows the quantification of the onset and kinetics of the cellular response. […]

[13] = test system: MRC-5 cells treated with BrdU; assay: xCELLigence assay, BrdU-treated MRC-5 cells; assay type: cell-based, human; details: 50 μM, 5 days after 8 days BrdU, compared to the control
From the text: as §2, §3, §4

[14] = test system: senescent MRC-5 cells; assay: Images of MRC-5 fibroblasts with BrdU pre-treatment; assay type: cell-based, human; details: 50 μM
Method: FIGS. 3A and 3B are images of MRC-5 fibroblasts without and with BrdU pre-treatment, respectively, treated with Compound [I] at a concentration of 50 μM. […] The scale bar in the upper-right of FIGS. 3B and 3C represents 20 μm.
BrdU Assay: Cells were plated into 24-well plates. Next day, half of the plate was treated with 100 μM of BrdU while control wells were treated with vehicle only (DMSO) and incubated for 8 days at 37° C. in a 5% CO2 humidified atmosphere. After 8 days of BrdU treatment cells were treated with various test compounds or drugs (e.g., azithromycin, roxithromycin, telithromycin, erythromycin, etc.) for another 3-5 days. BrdU or vehicle treatments were continued during the drug treatments as well.

[15] = test system: microorganism; assay: antibiotic activity screen, in vitro broth microdilution assay (overall statement); assay type: cell-based; details: vs azithromycin and erythromycin / reference compounds
Method: as §1

## CC[C@H]1OC(=O)[C@H](C)[C@@H](O[C@@H]2C[C@@](C)(OC)[C@@H](O)[C@H](C)O2)[C@H](C)[C@@H](O[C@@H]2O[C@H](C)C[C@H](N(C)C)[C@H]2OC(=O)OCc2ccc(O[C@@H]3O[C@H](COC(C)=O)[C@H](OC(C)=O)[C@H](OC(C)=O)[C@H]3OC(C)=O)c([N+](=O)[O-])c2)[C@](C)(O)C[C@@H](C)CN(C)[C@H](C)[C@@H](O)[C@]1(C)O [Compound [I], [(2R,3S,4S,5R,6S)-3,4,5-triacetoxy-6-[4-[[(2S,3R,4S,6R)-4-(dimethylamino)-2-[[(2R,3S,4R,5R,8R,10R,11R,12S,13S,14R)-2-ethyl-3,4,10-trihydroxy-13-[(2S,4R,5S,6S)-5-hydroxy-4-methoxy-4,6-dimethyl-tetrahydropyran-2-yl]oxy-3,5,6,8,10,12,14-heptamethyl-15-oxo-1-oxa-6-azacyclopentadec-11-yl]oxy]-6-methyl-tetrahydropyran-3-yl]oxycarbonyloxymethyl]-2-nitro-phenoxy]tetrahydropyran-2-yl]methyl acetate]
[1]
  MIC: 100 µM
[2]
  MIC: 25 µM
[3]
  MIC: > 100 µM
[4]
  MIC: 12.5 µM
[5]
  MIC: 6.25 µM
[6]
  MIC: 3.12 µM
[7]
  MIC: 50 µM
[8]
  MIC: > 100 µM
[9]
  MIC: 6.25 µM
[10]
  MIC: > 100 µM
[11]
  MIC: 0.78 µM
[12]
  effect on viability of normal fibroblasts (xCELLigence final cell index): no effect
[13]
  BrdU-treated fibroblasts killed (xCELLigence final cell index): over 90%
[14]
  effect on senescent MRC-5 cells (images): induced cell death
[15]
  antibiotic activity compared to macrolide antibiotics: less antibiotic activity
